# Entries after “also recorded” stand apart in the source; their conditions may differ. Read-outs that look alike come from different tables or passages of the source.
# What was measured:
# [1] = test system: NRF2; assay: qPCR analysis of NRF2-regulated genes; type: cell-based, human; conditions: for fold induction at 10 µM: Homo sapiens
# Summary of the method: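 WI-38 cells treated with compound at 10 μM for 24 hrs, then processed by Cells-to-Ct for RNA isolation, RT and qPCR of NRF2-regulated genes (HMOX1, NQO1, GCLC, GSTM1). Expression normalized to B2M, PPIA and GAPDH; siRNA knockdown of FOXO3 or NRF2 (10 nM) preceded treatment in some runs.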
# [2] = test system: LC3A/B puncta; assay: Autophagy induction analysis (LC3A/B puncta immuno-staining); type: cell-based, human; conditions: for Exp. 2, induction of LC3A/B puncta (Up), overlapped signals normalized by total number of nuclei in the fields / Exp. 2, normalized change of nuclei numbers (Less cells): 20X objective, lysosomal LAMP co-staining
# Summary of the method: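 WI-38 cells were treated with compounds for 24 hrs, then immunostained for LC3A/B (overnight, 4° C) with DAPI counterstain and imaged by high-content microscopy. Experiment 1 used total puncta intensity. Experiment 2 used LAMP2-colocalized (lysosomal) puncta. Intensity was normalized to nuclei count.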
# [3] = test system: WI-38 cells; assay: Long-term effects on cell viability (5 days, ATP; morphology, PI imaging); type: cell-based; conditions: for Luminescence signal for ATP measurement, day-1 Average / Luminescence signal for ATP measurement, day-2 Average / Luminescence signal for ATP measurement, day-3 Average / Luminescence signal for ATP measurement, day-4 Average / Luminescence signal for ATP measurement, day-5 Average: n = 6;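 as to Luminescence signal for ATP measurement, day-2 Average: compounds at 10 µM with ATP read daily over 5 days of treatment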;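 as to Luminescence signal for ATP measurement, day-3 Average: compounds at 10 µM with ATP read daily over 5 days of treatment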;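 as to Luminescence signal for ATP measurement, day-4 Average: compounds at 10 µM with ATP read daily over 5 days of treatment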;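 as to Luminescence signal for ATP measurement, day-5 Average: compounds at 10 µM with ATP read daily over 5 days of treatment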
# [4] = 24 h, Assay 12(o), at 10 uM, qPCR, read-out: Induction of NRF2-regulated genes: HMOX1 normalized fold-change
# [5] = WI-38 cells, 10 μM, 24 hrs, n=4, qPCR normalized by B2M, read-out: GCLC Normalized fold change
# [6] = WI-38 cells, 10 μM, 24 hrs, n=4, qPCR normalized by B2M, read-out: GSTM1 Normalized fold change
# [7] = WI-38 cells, 10 μM, 24 hrs, n=4, qPCR normalized by B2M, read-out: HMOX1 Normalized fold change
# [8] = WI-38 cells, 10 μM, 24 hrs, n=4, qPCR normalized by B2M, read-out: NQO1 Normalized fold change
# [9] = Batch 2, 10 μM, day-0 luminescence = 229312 ± 17487
# [10] = 10 μM, 24 hrs, WI-38 cells, qPCR, normalized to B2M, n = 4
# [11] = WI-38 cells, 10 μM, 24 hrs, n=4, qPCR normalized by B2M
# [12] = rounded fold change, WI-38 cells, 10 μM, 24 hrs (RP29 for Gr-4D)
# [13] = Exp. 1, 10 μM, 10X objective, WI-38 cells
# [14] = Batch 1, 10 μM, day-0 luminescence = 320956 ± 24708
structure (smiles),measurement,setting,value
Nc1ccccc1S(=O)(=O)Nc1cccc2cccnc12 [Gr-3C],F = Potential NRF2 Activation,[1]; 2-point score,0
same,fold induction at 10 µM,[1]; [4],0.86
same,fold induction at 10 µM,[1]; [5],0.991
same,fold induction at 10 µM,[1]; [6],1.45
same,fold induction at 10 µM,[1]; [7],1.12
same,fold induction at 10 µM,[1]; [8],1.19
same,F = Potential NRF2 Activation,[1]; summary score,0
same,H = Potential Autophagy Induction,[2]; score,0
same,H = Potential Autophagy Induction,[2]; summary score,0
same,"Luminescence signal for ATP measurement, day-1 Average",[3]; [9],190045
same,"Luminescence signal for ATP measurement, day-2 Average",[3]; [9],194191
same,"Luminescence signal for ATP measurement, day-3 Average",[3]; [9],270505
same,"Luminescence signal for ATP measurement, day-4 Average",[3]; [9],244033
same,"Luminescence signal for ATP measurement, day-5 Average","[3]; Batch 2, 10 μM, day-5, day-0 luminescence = 229312 ± 17487",265285
same,viability at 10 µM,"[3]; Homo sapiens, WI-38, 120 h, Batch 2, 10 μM, day-5, DMSO ctrl = 100.0%, read-out: ATP luminescence by day-5 normalized",47.7%
same,O = Potential toxicity,"[3]; human, 5 days, 10 μM",0
same,Q = Potential toxicity,"[3]; human, 5 days, 10 μM",1
COc1cc2c(no[n+]2[O-])n2nnnc12 [O11],"Induction of at least two NRF2-regulated genes (HMOX1, NQO1, GCLC, GSTM1)","[1]; 10 μM, 24 hrs, WI-38",could induce expression of at least two genes
same,"GSTM1 expression, normalized fold change (NRF2-regulated gene)",[1]; [10],"GSTM1 1.30, fold"
same,"NQO1 expression, normalized fold change (NRF2-regulated gene)",[1]; [10],"NQO1 2.03, fold"
same,F = Potential NRF2 Activation,[1]; 2-point score,0
same,Induction of NRF2-regulated genes: GSTM1 normalized fold-change,"[1]; Assay 12(o), at 10 uM, qPCR","GSTM1 1.30, fold-change"
same,Induction of NRF2-regulated genes: NQO1 normalized fold-change,"[1]; Assay 12(o), at 10 uM, qPCR","NQO1 2.03, fold-change"
same,GCLC Normalized fold change,[1]; [11],1.333 fold change
same,GSTM1 Normalized fold change,[1]; [11],1.304 fold change
same,HMOX1 Normalized fold change,[1]; [11],1.069 fold change
same,NQO1 Normalized fold change,[1]; [11],2.027 fold change
same,Summary of effects on NRF2-regulated genes: GSTM1,[1]; [12],"1.30,"
same,Summary of effects on NRF2-regulated genes: NQO1,[1]; [12],"2.03,"
same,F = Potential NRF2 Activation,[1]; summary score,0
same,Assay 15: Potential autophagy induction by LC3A/B puncta assays,"[2]; 10 uM & 20 uM, YES/NO",YES
same,"Exp. 1, induction of LC3A/B puncta (Up), total intensity normalized by total number of nuclei in the fields",[2]; [13],"p < 0.01; Up, 315%,"
same,"Exp. 1, normalized change of nuclei numbers (Less cells)",[2]; [13],"Less cells, 64%,"
same,"Exp. 2, induction of LC3A/B puncta (Up), overlapped signals normalized by total number of nuclei in the fields","[2]; Exp. 2, 10 μM, WI-38 cells","p < 0.001; Up, 193%,"
same,"Exp. 2, normalized change of nuclei numbers (Less cells)","[2]; Exp. 2, 10 μM, WI-38 cells","Less cells, 71%,"
same,"Exp. 2, induction of LC3A/B puncta (Up), overlapped signals normalized by total number of nuclei in the fields","[2]; Exp. 2, 20 μM, WI-38 cells","p < 0.001; Up, 159%,"
same,"Exp. 2, normalized change of nuclei numbers (Less cells)","[2]; Exp. 2, 20 μM, WI-38 cells","Less cells, 69%,"
same,H = Potential Autophagy Induction,[2]; score,1
same,H = Potential Autophagy Induction,[2]; summary score,1
same,"Long-term cell toxicity (cell number, morphology, PI-positive dead cells)","[3]; 10 μM, up to 5 days, no H2O2","reduced cell number substantially and increased the fraction of PI-positive dead cells; also recorded: less cells, and more cells scored positive for propidium iodide"
same,"Luminescence signal for ATP measurement, day-1 Average",[3]; [14],310373
same,"Luminescence signal for ATP measurement, day-2 Average",[3]; [14],412288
same,"Luminescence signal for ATP measurement, day-3 Average",[3]; [14],484520
same,"Luminescence signal for ATP measurement, day-4 Average",[3]; [14],642267
same,ATP luminescence by day-5 normalized,"[3]; Batch 1, 10 μM, day-5, DMSO ctrl = 100.0%",61.7%
same,"Luminescence signal for ATP measurement, day-5 Average","[3]; Batch 1, 10 μM, day-5, day-0 luminescence = 320956 ± 24708",633963
same,Q = Potential toxicity,"[3]; negative point, cultured human cells",1
same,O = Potential toxicity,[3]; summary score,1
CC1C(=O)C(C)C(c2cc(Cl)ccc2O)NC1c1cc(Cl)ccc1O (stereo not drawn) [O6],F = Potential NRF2 Activation,[1]; 2-point score,2
same,"Potential NRF2 Activation (>=2 target genes induced, by >=1.5-fold)",[1]; Assay 13(p),YES
same,fold induction at 10 µM,[1]; [4],3.85
same,fold induction at 10 µM,"[1]; 24 h, Assay 12(o), at 10 uM, qPCR, read-out: Induction of NRF2-regulated genes: NQO1 normalized fold-change",1.62
same,fold induction at 10 µM,"[1]; rounded fold change, WI-38 cells, 10 μM, 24 hrs (RP11 for Gr-1D, RP29 for Gr-4D), read-out: Summary of effects on NRF2-regulated genes: HMOX1",3.85
same,fold induction at 10 µM,"[1]; rounded fold change, WI-38 cells, 10 μM, 24 hrs (RP29 for Gr-4D), read-out: Summary of effects on NRF2-regulated genes: NQO1",1.62
same,fold induction at 10 µM,"[1]; 10 μM, 24 hrs, WI-38, read-out: Expression of at least two NRF2 target genes",> 1.5
same,fold induction at 10 µM,"[1]; 10 μM, 24 hrs, WI-38 cells, qPCR, normalized to B2M, n = 4, read-out: HMOX1 expression, normalized fold change (NRF2-regulated gene)",3.85
same,fold induction at 10 µM,"[1]; 10 μM, 24 hrs, WI-38 cells, qPCR, normalized to B2M, n = 4, read-out: NQO1 expression, normalized fold change (NRF2-regulated gene)",1.62
same,fold induction at 10 µM,[1]; [5],1.06
same,fold induction at 10 µM,[1]; [6],0.965
same,fold induction at 10 µM,[1]; [7],3.85
same,fold induction at 10 µM,[1]; [8],1.62
same,F = Potential NRF2 Activation,[1]; summary score,2
same,H = Potential Autophagy Induction,[2]; score,0
same,H = Potential Autophagy Induction,[2]; summary score,0
same,O = Potential toxicity,"[3]; human, 5 days, 10 μM",0
same,Q = Potential toxicity,"[3]; human, 5 days, 10 μM",0
